Laboratory results: patent publication US20250155433A1, “FLUORESCENT SENSORS FOR DETECTION OF SIDEROPHORES AND OTHER MOLECULES PRODUCED BY BACTERIAL PATHOGENS” (Kansas State University Research Foundation, priority 2021, published 2025)
*1 amine or outer side, *2 acyl side, *3 side chain or, on linkers, in order; H or OH if unused. Where a SMILES comes first, the peptide text is derived from it. Bridges are numbered along the chain shown (N, C = ends). [ ]: non-standard residue; d: D form. X1 = O=C([C@@H]1CCN=C2C(N[*:1])=Cc3cc(O)c(O)cc3N21)[*:2]; Orn(N5-OH,N5-Ac) = CC(=O)N(O)CCC[C@H](N)C(=O)O; X2 = O=CN(O)CCC[C@H](N[*:1])C(=O)[*:2]; Suc = O=C(CCC(=O)[*:2])[*:1]

What was measured:
AbaPiuA = AbaPiuA (Acinetobacter baumannii, UniProt D0CAH3, S724C); experiment: Fluorescence quenching binding to AbaPiuA-FM sensor
Method: (§1) Fluorescence modifications. For modifications with maleimide fluorophores, we inoculated E. coli strains OKN3, OKN13, OKN359 or OKN1359, harboring plasmids that encoded a Cys mutant LGP, from frozen stocks into LB, grew them overnight and sub-cultured at 1% into iron-deficient MOPS minimal media, with shaking (200 rpm) at 37° C. for 10-12 h, until late exponential phase. After collecting the cells by centrifugation at 7500×g for 15 min, and washing with 50 mM NaHPO4, pH 6.7, we labeled the Cys-mutant LGP with 5 μM FM in 50 mM NaHPO4, pH 6.7 for 15 min at 37° C. FM. We terminated the labeling reactions with 100 μM β-mercaptoethanol. After collecting the fluoresceinated cells by centrifugation at 7500×g for 15 min, and washing with 50 mM NaHPO4, pH 6.7, we re-suspended them in PBS plus 0.2% glucose. We either immediately used the labeled cells in spectroscopic experiments, or rested them on ice (up to 24 h), or added glycerol to 15% and stored them (indefinitely) as 1 mL aliquots at −70° C. […] After electrophoresis, we first visualized the fluorescence labeling on a Typhoon 8600 Biomolecular Scanner (GE/Amersham), and then stained the gels with Coomassie blue R (153).
(§2) Fluorescence spectroscopic binding determinations. We observed fluorophore-labeled cells in an SLM AMINCO 8100 fluorescence spectrometer, upgraded with an OLIS operating system and software (OLIS SpectralWorks, OLIS Inc., Bogart, GA), to control its shutters, polarizers and data collection. We also utilized an OLIS Clarity fluorescence spectrometer for fluorescence assays. For binding determinations we deposited 2.5×10^7 labeled cells in a quartz cuvette (final volume, 2 mL) with stirring at 37° C., measured the initial fluorescence (F0), and then added increasing concentrations of an iron complex while monitoring the quenching of fluorescence emissions (F) at 520 nm. We performed each measurement in triplicate and calculated the mean value of F/F0 at each ligand concentration. […]
(§3) Table 1 lists KD values from analysis of fluorescence quenching with ferric or apo (parenthetic values) siderophores or porphyrins. […]

EcoIutA = target: T1, EcoIutA (Escherichia coli, UniProt P14542, T573C); experiment: Fluorescence quenching binding to EcoIutA-FM sensor; details: other ferric hydroxamates
T1 construct: expressed in transfected cells; host or cells: E. coli OKN3/OKN13/OKN359/OKN1359 carrying a pITS23 derivative
Method: (§4) Fluorescence modifications. For modifications with maleimide fluorophores, we inoculated E. coli strains OKN3, OKN13, OKN359 or OKN1359, harboring plasmids that encoded a Cys mutant LGP, from frozen stocks into LB, grew them overnight and sub-cultured at 1% into iron-deficient MOPS minimal media, with shaking (200 rpm) at 37° C. for 10-12 h, until late exponential phase. After collecting the cells by centrifugation at 7500×g for 15 min, and washing with 50 mM NaHPO4, pH 6.7, we labeled the Cys-mutant LGP with 5 μM FM in 50 mM NaHPO4, pH 6.7 for 15 min at 37° C. FM. We terminated the labeling reactions with 100 μM β-mercaptoethanol. After collecting the fluoresceinated cells by centrifugation at 7500×g for 15 min, and washing with 50 mM NaHPO4, pH 6.7, we re-suspended them in PBS plus 0.2% glucose. We either immediately used the labeled cells in spectroscopic experiments, or rested them on ice (up to 24 h), or added glycerol to 15% and stored them (indefinitely) as 1 mL aliquots at −70° C. In the latter case, after thawing the labeled cells we pelleted them by centrifugation in a microfuge, washed them once with and re-suspended them in PBS containing 0.2% glucose. Lastly, for evaluation of protein expression or the extent of FM-labeling we solubilized aliquots of the cell suspensions with sample buffer, and subjected them to SDS-PAGE. After electrophoresis, we first visualized the fluorescence labeling on a Typhoon 8600 Biomolecular Scanner (GE/Amersham), and then stained the gels with Coomassie blue R (153).
as §2, with “concentration. We plotted 1−F/F0 vs [ligand] and analyzed the data by the 1-site binding model of Grafit 6.0.12 (Erithacus Ltd. West Sussex, UK), that fits data to a single site saturation curve, where the amount of ligand bound is plotted as a function of the amount free:” for “concentration.”
as §3

[1] = target: T2, HsaSCN (human siderocalin) (Homo sapiens, UniProt P80188, Q148C); experiment: Fluorescence quenching binding to purified HsaSCN-FM sensor; details: read-out: KD, HsaSCN-FM
T2 construct: adds a 6H-tag at either the N- or C-termini of the mature proteins; 6-His (N); made in house; host or cells: E. coli BL21 (pET28), IPTG-induced; purified on Talon Superflow

EcoFhuA = EcoFhuA (Escherichia coli, UniProt P06971); experiment: Fluorescence quenching binding to EcoFhuA-FM sensor; details: read-out: Affinity (KD) of sensor EcoFhuA; ferric complexes; Cys residue D396C, FM-labeled; NB = no binding
Method: as §4
as §2, with “concentration. We plotted 1−F/F0 vs [ligand] and analyzed the data by the 1-site binding model of Grafit 6.0.12 (Erithacus Ltd. West Sussex, UK), that fits data to a single site saturation curve, where the amount of ligand bound is plotted as a function of the amount free:” for “concentration.”
as §3

CRE/ESKAPE pathogens = experiment: Decoy sensor measurements of metal complex uptake by bacteria; type: cell-based; details: for TonB-dependent uptake by test strains: decoy sensors in TonB-deficient E. coli, 37° C., strains grown in iron-deficient MOPS
From the text: Fluorescence spectroscopic uptake measurements. We employed FD sensors to monitor TonB-dependent uptake of various siderophores by bacterial pathogens. In the fluorescence spectroscopic uptake studies E. coli OKN13 (ΔtonB, ΔfepA) or OKN1359 (ΔtonB, Δfiu, ΔfepA, Δcir) were host strains for pITS23 derivatives carrying single Cys mutants of an LGP of interest. The FLGP were decoy sensors that monitored ferric siderophore uptake by test strains. For each assay we used 10^7 sensor cells (e.g., OKN13/pFepA-FM (53)) in a 2 mL quartz cuvette containing PBS+0.2% glucose at 37° C. After recording fluorescence intensity for 100 seconds, we added an iron complex (e.g., FeEnt) at a final concentration of ˜10 nM. After incubating the sample for 100 seconds, during which time fluorescence was quenched (e.g., ˜60% quenching for EcoFepA_A698C-FM), we added 0.5-2×10^7 cells of the test strain (E. coli MG1655, K. pneumoniae Kp52.145, A. baumannii 17978, P. aeruginosa PA01, E. cloacae) and monitored the time-course of fluorescence emissions at 520 nm for 15-40 minutes, with stirring.

KpnFyuA = experiment: Fluorescence quenching binding to KpnFyuA-FM sensor; set-up: species or system Klebsiella pneumoniae; details: apo (parenthetic value); S631C; read-out: Affinity (KD) of sensor KpnFyuA, apo siderophore
Method: as §1, §2, §3

EcoFiu = target: T3, EcoFiu (Escherichia coli, UniProt P75780, A694C); experiment: biochemical; type: binding
T3 construct: expressed in transfected cells; host or cells: E. coli OKN3/OKN13/OKN359/OKN1359 carrying a pITS23 derivative
Method: as §4
Fluorescence spectroscopic binding determinations. We observed fluorophore-labeled cells in an SLM AMINCO 8100 fluorescence spectrometer, upgraded with an OLIS operating system and software (OLIS SpectralWorks, OLIS Inc., Bogart, GA), to control its shutters, polarizers and data collection. We also utilized an OLIS Clarity fluorescence spectrometer for fluorescence assays. For binding determinations we deposited 2.5×10^7 labeled cells in a quartz cuvette (final volume, 2 mL) with stirring at 37° C., measured the initial fluorescence (F0), and then added increasing concentrations of an iron complex while monitoring the quenching of fluorescence emissions (F) at 520 nm. We performed each measurement in triplicate and calculated the mean value of F/F0 at each ligand concentration. We plotted 1−F/F0 vs [ligand] and analyzed the data by the 1-site binding model of Grafit 6.0.12 (Erithacus Ltd. West Sussex, UK), that fits data to a single site saturation curve, where the amount of ligand bound is plotted as a function of the amount free:
These plots yielded KD values for each of the receptor-ligand interactions, with associated standard errors.
Table 1 lists KD values from analysis of fluorescence quenching with ferric or apo (parenthetic values) siderophores or porphyrins. For each determination, we measured the extent of fluorescence quenching of an FLGP, when exposed to sequentially increasing concentrations of the listed metal complexes, as plotted in FIGS. 2-4. We performed each experiment 2 or 3 times. The tabulated KD values are from single, representative experiments, in which we collected each data point in triplicate, plotted F/F0 vs [ligand] for each quenching titration, and fitted the curves to a single site binding model using Grafit 6.012 (Erithacus Ltd, […], UK).

PaeFpvA = target: T4, PaeFpvA (Pseudomonas aeruginosa, UniProt P48632, T660C); experiment: Fluorescence quenching binding to PaeFpvA-FM sensor; details: secondary ligands
T4 construct: expressed in transfected cells; host or cells: E. coli OKN3/OKN13/OKN359/OKN1359 carrying a pITS23 derivative
Method: as §1, with “β-mercaptoethanol.” for “β-mercaptoethanol. After collecting the fluoresceinated cells by centrifugation at 7500×g for 15 min, and washing with 50 mM NaHPO4, pH 6.7, we re-suspended them in PBS plus 0.2% glucose. We either immediately used the labeled cells in spectroscopic experiments, or rested them on ice (up to 24 h), or added glycerol to 15% and stored them (indefinitely) as 1 mL aliquots at −70° C.”
(§5) Fluorescence spectroscopic binding determinations. We observed fluorophore-labeled cells in an SLM AMINCO 8100 fluorescence spectrometer, upgraded with an OLIS operating system and software (OLIS SpectralWorks, OLIS Inc., Bogart, GA), to control its shutters, polarizers and data collection. We also utilized an OLIS Clarity fluorescence spectrometer for fluorescence assays. […] We performed each measurement in triplicate and calculated the mean value of F/F0 at each ligand concentration. […]

KpnFepA2380 = experiment: Fluorescence quenching binding to KpnFepA2380-FM sensor; set-up: species or system Klebsiella pneumoniae; details: ferric complexes; Cys residue T255C, FM-labeled; NB = no binding; read-out: Affinity (KD) of sensor KpnFepA 2380
Method: as §1, with “β-mercaptoethanol.” for “β-mercaptoethanol. After collecting the fluoresceinated cells by centrifugation at 7500×g for 15 min, and washing with 50 mM NaHPO4, pH 6.7, we re-suspended them in PBS plus 0.2% glucose. We either immediately used the labeled cells in spectroscopic experiments, or rested them on ice (up to 24 h), or added glycerol to 15% and stored them (indefinitely) as 1 mL aliquots at −70° C.”
as §5

With O=C(N[C@H]1COC(=O)[C@@H](NC(=O)c2cc([C@@H]3O[C@H](CO)[C@@H](O)[C@H](O)[C@H]3O)cc(O)c2[O-])COC(=O)[C@@H](NC(=O)c2cc([C@@H]3O[C@H](CO)[C@@H](O)[C@H](O)[C@H]3O)cc(O)c2[O-])COC1=O)c1cccc(O)c1[O-].[Fe+3] [FeGEnt] the “Binding by AbaPiuA” value (AbaPiuA) was “did not bind”.
In the case of CC(=O)N(O)CCC[C@@H]1NC(=O)CNC(=O)CNC(=O)CNC(=O)[C@H](CCCN(O)C(C)=O)NC(=O)[C@H](CCCN(O)C(C)=O)NC1=O.[Fe+3] [Fc, ferrichrome] (cyclo(GGG[Orn(N5-OH,N5-Ac)][Orn(N5-OH,N5-Ac)][Orn(N5-OH,N5-Ac)])), the “Binding by IutA” value (EcoIutA) is reported as “did not measurably bind”, the Kd [1] is reported as 0.11 µM and the Kd (EcoFhuA) is reported as 0.003 µM.
C[C@@H](O)[C@@H]1NC(=O)[C@H](CCCN([O-])C=O)NC(=O)[C@@H](NC(=O)[C@H](CCCN([O-])C=O)NC(=O)[C@@H](CO)NC(=O)[C@H](CCCNC(=N)N)NC(=O)[C@@H](CO)NC(=O)[C@@H]2CCN=C3C(NC(=O)CCC(=O)O)=Cc4cc(O)c([O-])cc4N32)CCCCNC(=O)[C@H]([C@@H](C)O)NC1=O.[Fe+3] [FePvd] (Suc-[X1][dS]R[dS][X2]K[X2]TT; lactam 6-C) was tested, and the “TonB-dependent uptake by test strains” value (CRE/ESKAPE pathogens) was “exclusive transport of FePvd by P. aeruginosa”.
CC(C)(C1=N[C@@](C)(C(=O)O)CS1)[C@H](O)[C@@H]1CSC([C@H]2CSC(c3ccccc3O)=N2)N1 (stereo partly shown) [Ybt, yersiniabactin] was tested, and the Kd (KpnFyuA) was 0.12 µM.
With O=C(O)c1cccc(O)c1O.[Fe+3] [FeDHB] the “Binding by EcoFiu” value (EcoFiu) was “did not bind”, the “Binding by PaeFpvA” value (PaeFpvA) was “weakly bound” and the Kd (KpnFepA2380) was 22 µM.
For CC(=O)N([O-])CCCC[C@H](NC(=O)CC(O)(CC(=O)N[C@@H](CCCCN([O-])C(C)=O)C(=O)O)C(=O)[O-])C(=O)O.[Fe+3] [FeAbn, ferric aerobactin], the “TonB-dependent uptake by test strains” value (CRE/ESKAPE pathogens) was “uptake of FeAbn by all the strains except A. baumannii”.
In the case of O=C(N[C@H]1COC(=O)[C@@H](NC(=O)c2cccc([O-])c2[O-])COC(=O)[C@@H](NC(=O)c2cccc([O-])c2[O-])COC1=O)c1cccc([O-])c1[O-].[Fe+3] [FeEnt, ferric enterobactin], the “Binding by PaeFpvA” value (PaeFpvA) is reported as “weakly bound”, the Kd (KpnFepA2380) is reported as 12.8 µM and the Transport rate (CRE/ESKAPE pathogens; iron deficient Gram (−) bacteria with maximally expressed chromosomal FepA) is reported as about 50 pMol/10^9 cells/min.
